Laboratory results: patent US6482799B1, “Self-preserving multipurpose ophthalmic solutions incorporating a polypeptide antimicrobial” (The Regents of the University of California, priority 1999, dated 2002)

Columns and labels:
S. aureus ATCC 6538 [1] = test: Long-term (8 month) stability in commercial container (Rite-Aid) by S. aureus bioassay; format: cell-based, Staphylococcus aureus; conditions: 50 μg/ml; for log kill: 4 hours exposure; for stability: 8 months
Method: Long term stability of indolicidin was evaluated in a commercial container (Rite-Aid). The L-indolicidin concentration was 50 μg/ml formulated in a 10 mM sodium phosphate buffer, pH 7.4, with and without 0.85% sodium chloride. The test organism was S. aureus ATCC 6538. Sampling time was 0, 1, 2, 3, 4 and 8 months. The exposure time of the test organism was 0 and 4 hours.

S. aureus ATCC 6538 [2] = test: Protocol 3 time-dependent antimicrobial activity at one dose level; format: cell-based, Staphylococcus aureus; conditions: 50 μg/ml, 10 mM sodium phosphate buffer pH 7.4, 1, 2, 5 and 15 minutes, room temperature
Method: (§1) The objective of this protocol is to establish a procedure for determining the antimicrobial activity of indolicidin (e.g., L-IND) at 50 μg/ml over an extended exposure time up to 24 hours at room temperature. It is believed that this procedure more closely mimics the recommended use of lens-care products.
(§2) Exposure of the test organism to indolicidin occurs in a buffered solution for up to 24 hours with sampling for viability at different time intervals. Polypropylene 96-well microtiter plates and microcentrifuge tubes are used for exposure and dilution of indolicidin, respectively.
(§3) The following materials are used: sterile glass tubes containing 5 ml of Mueller-Hinton Broth (MHB), Mueller-Hinton agar plates, sterile 96-well polypropylene microtiter plates, and sterile polypropylene microcentrifuge tubes.
(§4) One or more of the following microorganisms are used in assays using this protocol or modification of this protocol: Pseudomonas aeruginosa (ATCC 9027), Pseudomonas aeruginosa (ATCC 27853), and S. aureus (ATCC 6538).
Five 5 ml of MHB tubes are innoculated with the tester strain(s) from MHA plates and grown overnight at 37° C. on a shaker (180 rpm). […]
Survival is determined by counting the colonies appearing on plates after overnight incubation at 37° C. The results are expressed as CFU/ml and survival is expressed as the percent of the bacteria that survived the treatment. […]

[3] = test system: P. aeruginosa (ATCC 9027); test: as above; format: cell-based, Pseudomonas aeruginosa
Method: as §1, §2, §3, §4
Five 5 ml of MHB tubes are innoculated with the tester strain(s) from MHA plates and grown overnight at 37° C. on a shaker (180 rpm). A micropipet tip is prewet for at least 2 minutes with 100 μl of the stock solution of indolicidin (e.g., L-IND). The test article is dispensed back in the stock solution vial and the pipette is reset to a volume of 10 μl. Polypropylene microcentrifuge tubes are used to dilute the stock of indolicidin (10 mg/ml) 10-fold in sterile water. To obtain a 10× solution of indolicidin with a dose level equivalent to 50 μg/ml dose level dilute 10 μl of the stock solution of indolicidin in 90 μl of sterile water. (The concentration of indolicidin in the final exposure volume of […] will be 5 μg when 10 μl of the 10× solution is added to 100 μl of bacterial suspension). The overnight cultures are washed twice in sterile saline and resuspend in appropriate buffer. The washed culture is diluted in the appropriate buffer to give an estimated 10^6 CFU/ml. Then 10 μl of the 10× test peptide dilutions are added to a predetermined number of wells in the polypropylene microtiter plate. 100 μl of the bacterial suspension is dispensed to the wells in the polypropylene microtiter plate containing the test chemical and mixed well. Controls include one well each for negative controls, i.e., bacteria only sampled at the initiation of the experiment and at the completion of the experiment. The microtiter plate is covered with aluminum foil to shield the exposure mixture from direct light and placed on the bench top at room temperature. At the end of each time interval, the mixture is diluted in an appropriate sterile buffer and plated for viable counts.
Survival is determined by counting the colonies appearing on plates after overnight incubation at 37° C. The results are expressed as CFU/ml and survival is expressed as the percent of the bacteria that survived the treatment.
The purpose of this experiment was to repeat Experiment 4 under identical conditions using P. aeruginosa 9027, with the exception of one additional time point of 60 minutes. The culture was washed 2 times in 10 mM sodium phosphate buffer, pH 7.4.
Protocol 3 was used with the modifications described above. The test organism was P. aeruginosa 9027. L-indolicidin was tested at 50 μg/ml only. Sterile water was used as a solvent for L-IND. 10 mM sodium phosphate buffer, pH 7.4 was used as a vehicle for exposure of bacteria to L-IND. Final incubation volume in polypropylene microtiter plates was 110 μl, and incubation times were 0, 1, 2, 5 and 15 and 60 minutes at room temperature.
This experiment was a repeat of Experiment 6 using the same exposure protocol, but with a prolonged exposure time, namely 24 hours, and using washed cells of an 18-hour old overnight culture of P. aeruginosa inoculated in Mueller-Hinton broth. Incubation times were 0 and 24 hours, at room temperature. […]

Compound: CC[C@H](C)[C@H](N)C(=O)N[C@@H](CC(C)C)C(=O)N1CCC[C@H]1C(=O)N[C@@H](Cc1c[nH]c2ccccc12)C(=O)N[C@@H](CCCCN)C(=O)N[C@@H](Cc1c[nH]c2ccccc12)C(=O)N1CCC[C@H]1C(=O)N[C@@H](Cc1c[nH]c2ccccc12)C(=O)N[C@@H](Cc1c[nH]c2ccccc12)C(=O)N1CCC[C@H]1C(=O)N[C@@H](Cc1c[nH]c2ccccc12)C(=O)N[C@@H](CCCNC(=N)N)C(=O)N[C@@H](CCCNC(=N)N)C(N)=O [L-indolicidin, H2N-ILPWKWPWWPWRR-CONH2]
- log kill (S. aureus ATCC 6538 [1]; 10 mM SP pH 7.4, over 8 months): ~4 log
- log kill (S. aureus ATCC 6538 [1]; 10 mM SP with 0.85% NaCl, over 8 months): ~1 log
- stability (S. aureus ATCC 6538 [1]; 10 mM SP with NaCl): 100%
- stability (S. aureus ATCC 6538 [1]; 10 mM SP): 100%
- survival (S. aureus ATCC 6538 [2]): no survival
- survival ([3]; 50 μg/ml, 10 mM sodium phosphate buffer, 1, 2 and 5 minutes, room temperature): 100%
- survival ([3]; 50 μg/ml, 10 mM sodium phosphate buffer, 15 minutes): 19%
- survival reduction ([3]; 50 μg/ml, 10 mM sodium phosphate buffer, 60 min): ~2 logs
- survival ([3]; 50 μg/ml, 10 mM sodium phosphate buffer, 24 hours, room temperature): no apparent survival
- log cell reduction ([3]; 50 μg/ml, 10 mM sodium phosphate buffer, as early as after 1 minute exposure, initial 2.0×10^6 CFU/ml): ~6 log
- survival ([3]; 50 μg/ml, 10 mM sodium phosphate buffer, exposure time 0 hr): 1.2 × 10^6 CFU/ml
- survival ([3]; 50 μg/ml, 10 mM sodium phosphate buffer, exposure time 1 hr): 6.5 × 10^5 CFU/ml
- survival ([3]; 50 μg/ml, 10 mM sodium phosphate buffer, exposure time 2 hr): 1.1 × 10^4 CFU/ml
- survival ([3]; 50 μg/ml, 10 mM sodium phosphate buffer, exposure time 4 hr): 0 CFU/ml
- survival ([3]; 50 μg/ml, 10 mM sodium phosphate buffer, exposure time 6 hr): 0 CFU/ml
- survival ([3]; 50 μg/ml, 10 mM sodium phosphate buffer, exposure time 12 hr): 0 CFU/ml
- survival ([3]; 50 μg/ml, 10 mM sodium phosphate buffer, up to 15 minutes): 100%
- survival ([3]; 50 μg/ml, 100 mM sodium phosphate buffer pH 7.4, all time points 0-24 hours): no survival
- viability decrease ([3]; 50 μg/ml, 100 mM sodium phosphate buffer, 1 and 2 minutes): about 1 log
- colonies on plates ([3]; 50 μg/ml, 100 mM sodium phosphate buffer, 15 and 60 minutes): No colonies
- colonies on plate seeded with 0.1 ml undiluted exposure mixture ([3]; 50 μg/ml, 100 mM sodium phosphate buffer, 5 minutes): 34 colonies
- Bacterial growth, Buffer and L-indolicidin 50 μg/ml ([3]; 100 mM sodium phosphate buffer, incubation time 0 hr): 0
- Bacterial growth, Buffer and L-indolicidin 50 μg/ml ([3]; 100 mM sodium phosphate buffer, incubation time 24 hr): 0
- survival ([3]; 50 μ/ml, 10 mM sodium phosphate buffer, after 4 hours exposure): no detectable survival
